Laboratory results published in patent US8846698B2, “Pyrrolo[2,3-d]pyrimidine tropomysin-related kinase inhibitors” (Pfizer Limited, priority 2011, dated 2014).
Read-outs that look alike come from different tables or passages of the source.

Tests used:
TRKA [1] = biological target: T1, TRKA (Homo sapiens (Human), UniProt P04629); assay: Cell based DiscoveRx PathHunter antagonist assay, TRKA cell line; conditions: read-out: TrkA cell potency
Target sequence in this assay (P04629 33-796): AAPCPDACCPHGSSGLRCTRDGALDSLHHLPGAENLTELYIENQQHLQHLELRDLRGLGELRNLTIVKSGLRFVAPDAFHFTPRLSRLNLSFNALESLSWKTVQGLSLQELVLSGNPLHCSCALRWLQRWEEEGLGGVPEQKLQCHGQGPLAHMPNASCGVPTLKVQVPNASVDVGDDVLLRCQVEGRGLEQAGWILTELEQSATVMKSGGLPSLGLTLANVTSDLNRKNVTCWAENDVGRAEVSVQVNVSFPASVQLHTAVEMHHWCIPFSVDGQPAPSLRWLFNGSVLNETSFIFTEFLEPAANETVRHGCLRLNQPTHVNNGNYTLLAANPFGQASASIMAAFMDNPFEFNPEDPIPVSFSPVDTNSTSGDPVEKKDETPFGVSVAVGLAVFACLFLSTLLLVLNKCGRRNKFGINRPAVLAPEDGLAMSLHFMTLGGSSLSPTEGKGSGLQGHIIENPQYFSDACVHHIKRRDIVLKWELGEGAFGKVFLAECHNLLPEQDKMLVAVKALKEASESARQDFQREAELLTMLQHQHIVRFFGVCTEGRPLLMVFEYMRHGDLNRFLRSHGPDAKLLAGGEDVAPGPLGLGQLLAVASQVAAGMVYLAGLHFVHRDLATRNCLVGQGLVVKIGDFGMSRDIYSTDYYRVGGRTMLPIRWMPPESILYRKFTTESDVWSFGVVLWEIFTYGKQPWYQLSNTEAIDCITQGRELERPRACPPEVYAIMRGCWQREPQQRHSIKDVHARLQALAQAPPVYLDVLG

MDR1 = MDR1 (Homo sapiens (Human), UniProt P08183); assay: MDCK-MDR1 assay (in vitro brain penetration); type: in vitro ADME; conditions: for Papp A→B / Papp B→A: human; for Papp A→B / MDCK MDR1 Papp AB: MDCK-MDR1, A to B; for Papp A→B: read-out: MDCK MDR1 Papp AB; for Papp B→A: read-out: MDCK MDR1 Papp BA
Chain of MDR1 (P08183 whole entry): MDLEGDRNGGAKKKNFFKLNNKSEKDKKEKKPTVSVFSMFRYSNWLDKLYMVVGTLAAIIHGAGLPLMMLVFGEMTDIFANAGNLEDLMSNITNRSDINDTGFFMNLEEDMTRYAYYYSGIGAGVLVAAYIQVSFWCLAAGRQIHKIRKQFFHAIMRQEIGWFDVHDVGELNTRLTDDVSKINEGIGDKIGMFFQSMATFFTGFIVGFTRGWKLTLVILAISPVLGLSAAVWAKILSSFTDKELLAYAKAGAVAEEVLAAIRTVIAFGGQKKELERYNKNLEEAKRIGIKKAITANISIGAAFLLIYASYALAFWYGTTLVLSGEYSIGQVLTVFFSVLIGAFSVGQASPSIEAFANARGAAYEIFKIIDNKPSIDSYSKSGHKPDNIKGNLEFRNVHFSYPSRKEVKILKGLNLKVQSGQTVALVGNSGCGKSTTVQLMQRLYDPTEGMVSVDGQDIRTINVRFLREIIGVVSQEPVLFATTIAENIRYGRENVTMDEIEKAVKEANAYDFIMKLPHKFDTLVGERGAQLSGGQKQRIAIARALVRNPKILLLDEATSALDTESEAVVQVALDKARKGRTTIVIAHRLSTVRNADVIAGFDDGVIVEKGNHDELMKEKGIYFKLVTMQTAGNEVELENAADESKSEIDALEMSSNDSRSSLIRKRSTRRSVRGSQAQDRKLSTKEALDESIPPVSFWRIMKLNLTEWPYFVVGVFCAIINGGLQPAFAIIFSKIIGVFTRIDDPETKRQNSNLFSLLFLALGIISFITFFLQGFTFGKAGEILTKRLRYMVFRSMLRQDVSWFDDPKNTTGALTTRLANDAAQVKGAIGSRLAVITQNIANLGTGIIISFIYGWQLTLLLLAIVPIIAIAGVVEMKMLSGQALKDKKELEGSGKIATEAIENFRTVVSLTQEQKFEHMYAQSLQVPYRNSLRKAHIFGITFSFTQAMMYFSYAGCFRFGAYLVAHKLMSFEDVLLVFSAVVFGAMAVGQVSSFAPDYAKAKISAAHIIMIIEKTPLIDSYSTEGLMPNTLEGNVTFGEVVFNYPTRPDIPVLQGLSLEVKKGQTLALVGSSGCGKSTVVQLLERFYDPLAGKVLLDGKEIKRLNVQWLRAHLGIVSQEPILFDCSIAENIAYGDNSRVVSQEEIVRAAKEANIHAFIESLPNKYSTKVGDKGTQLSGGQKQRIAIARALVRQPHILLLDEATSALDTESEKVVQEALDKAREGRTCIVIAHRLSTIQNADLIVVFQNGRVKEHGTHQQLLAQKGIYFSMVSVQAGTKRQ
From the text: MDCK-MDR1: MDCK-MDR1 data were collected according to the method described in “Are MDCK Cells Transfected with the Human MDR1 Gene a Good Model of the Human Intestinal Mucosa?”
http://www.springerlink.com/content/qfhqlqbr4fnp3 khf/fulltext.pdf

TRKB [2] = biological target: T2, TRKB (Homo sapiens (Human), UniProt Q16620); assay: cell-based; conditions: TrkB cell potency, TRKB PathHunter cell line
T2 sequence (Q16620 32-822 limits assumed): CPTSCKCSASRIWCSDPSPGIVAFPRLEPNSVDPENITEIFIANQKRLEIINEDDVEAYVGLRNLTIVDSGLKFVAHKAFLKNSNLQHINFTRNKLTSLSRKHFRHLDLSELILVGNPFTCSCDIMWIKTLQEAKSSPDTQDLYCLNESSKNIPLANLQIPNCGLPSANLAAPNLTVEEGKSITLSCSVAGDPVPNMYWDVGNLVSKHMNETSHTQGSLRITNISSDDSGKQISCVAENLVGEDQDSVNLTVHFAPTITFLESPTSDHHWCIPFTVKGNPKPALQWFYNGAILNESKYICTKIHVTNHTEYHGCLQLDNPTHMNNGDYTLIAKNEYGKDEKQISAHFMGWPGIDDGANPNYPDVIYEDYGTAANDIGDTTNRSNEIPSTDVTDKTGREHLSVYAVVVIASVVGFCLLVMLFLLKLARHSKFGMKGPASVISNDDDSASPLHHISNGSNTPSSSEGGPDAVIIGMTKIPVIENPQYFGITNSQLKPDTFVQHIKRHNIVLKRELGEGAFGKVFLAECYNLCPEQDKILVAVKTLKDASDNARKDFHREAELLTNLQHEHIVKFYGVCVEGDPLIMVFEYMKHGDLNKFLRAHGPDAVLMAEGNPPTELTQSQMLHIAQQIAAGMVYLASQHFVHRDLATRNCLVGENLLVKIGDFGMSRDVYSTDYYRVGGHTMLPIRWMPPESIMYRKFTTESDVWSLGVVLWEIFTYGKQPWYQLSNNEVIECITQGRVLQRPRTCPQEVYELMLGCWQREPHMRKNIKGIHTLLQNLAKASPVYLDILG

TRKA [3] = biological target: T1, TRKA; assay: Isolated TRK enzyme assay (HTRF KinEASE-TK), TRKA; type: biochemical; conditions: isolated TRKA enzyme; read-out: TrkA enzyme potency
Target sequence in this assay (P04629 441-796): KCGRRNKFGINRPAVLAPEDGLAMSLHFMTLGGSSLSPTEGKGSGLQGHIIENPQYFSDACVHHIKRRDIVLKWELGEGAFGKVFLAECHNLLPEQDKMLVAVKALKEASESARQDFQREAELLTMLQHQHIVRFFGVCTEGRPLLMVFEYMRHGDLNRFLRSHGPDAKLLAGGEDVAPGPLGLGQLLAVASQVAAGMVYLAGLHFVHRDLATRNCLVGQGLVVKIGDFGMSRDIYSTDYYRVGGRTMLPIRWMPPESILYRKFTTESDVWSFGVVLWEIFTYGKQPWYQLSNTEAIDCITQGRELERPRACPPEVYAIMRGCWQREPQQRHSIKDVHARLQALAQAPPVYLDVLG

TRKC = TRKC (Homo sapiens (Human), UniProt Q16288); assay: Cell based DiscoveRx PathHunter antagonist assay, TRKC cell line; conditions: read-out: TrkC cell potency
Chain of TRKC (Q16288 32-839): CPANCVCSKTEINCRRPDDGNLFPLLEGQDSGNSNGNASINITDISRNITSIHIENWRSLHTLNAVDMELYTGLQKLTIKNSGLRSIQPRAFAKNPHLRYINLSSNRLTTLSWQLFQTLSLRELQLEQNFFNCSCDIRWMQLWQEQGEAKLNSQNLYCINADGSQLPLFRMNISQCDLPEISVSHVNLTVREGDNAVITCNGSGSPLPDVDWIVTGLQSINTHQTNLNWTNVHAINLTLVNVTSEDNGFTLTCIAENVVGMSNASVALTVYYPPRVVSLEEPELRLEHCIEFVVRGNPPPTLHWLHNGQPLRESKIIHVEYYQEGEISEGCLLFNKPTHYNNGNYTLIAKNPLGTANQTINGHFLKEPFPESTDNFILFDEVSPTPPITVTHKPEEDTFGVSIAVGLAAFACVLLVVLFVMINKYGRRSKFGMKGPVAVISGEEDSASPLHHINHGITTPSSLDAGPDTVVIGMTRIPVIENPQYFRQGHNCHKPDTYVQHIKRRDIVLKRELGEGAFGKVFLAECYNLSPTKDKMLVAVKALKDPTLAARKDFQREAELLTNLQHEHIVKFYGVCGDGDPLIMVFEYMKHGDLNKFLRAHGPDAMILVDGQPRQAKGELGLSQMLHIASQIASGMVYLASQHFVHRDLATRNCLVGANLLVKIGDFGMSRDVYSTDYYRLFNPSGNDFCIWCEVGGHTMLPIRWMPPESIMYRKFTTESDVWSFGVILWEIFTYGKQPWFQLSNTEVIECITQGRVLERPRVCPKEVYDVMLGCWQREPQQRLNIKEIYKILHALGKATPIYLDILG
Experimental: After the Detection Reagent addition, plates are covered and incubated at room temperature for 60 minutes. […] Test compound data are expressed as percentage inhibition defined by HPE and ZPE values for each plate. Percentage inhibition in the presence of test compound is plotted against compound concentration on a log scale to determine an IC50 from the resultant sigmoid curve. Cell Based Assays were carried out using Cell lines from DiscoveRx utilising their PathHunter technology and reagents in an antagonist assay:
The assays are based upon DiscoveRx's proprietary Enzyme Fragment Complementation (EFC) technology. In the case of the TRK cell lines, the enzyme acceptor (EA) protein is fused to a SH2 protein and the TRK receptor of interest has been tagged with a Prolink tag.
Upon neurotrophin binding, the TRK receptor becomes phosphorylated, and the tagged SH2 protein binds.
This means that the IC50 is a good measure of affinity and should be unaffected by concentration neurotrophin stimulant.
Cryopreserved PathHunter cells are used from either in-house produced batches or bulk batches bought directly from DiscoveRx. Cryopreserved cells are resuscitated, spun 1000 rpm for 4 min to remove freezing media, and resuspended in MEM+0.5% horse serum (both Invitrogen) to 5e^5 cells/ml. The cells are then plated using a Multidrop into Greiner white tissue culture treated plates at 20 ul/well and incubated for 24 h at 37° C., 5% CO2, high humidity. On the day of the assay, the cell plates are allowed to cool to room temperature for 30 min prior to the assay.
Plates containing 1 ul of serially diluted compound, standard and HPE/ZPE are diluted 1/66 in assay buffer (PBS minus Ca^2+, minus Mg^2+ with 0.05% pluronic F127) using a Wellmate. […] The plates are left at room temperature for a further 2 hours before addition of 10 ul of the DiscoveRx PathHunter detection reagent (made up by adding 1 part Galacton Star, 5 parts Emerald II and 19 parts Cell Assay Buffer as per the manufacturer's instructions).
After reagent addition, plates are covered and incubated at room temperature for 60 minutes. Luminescence signal is read using an Envision. Test compound data are expressed as percentage inhibition defined by HPE and ZPE values for each plate. Percentage inhibition in the presence of test compound is plotted against compound concentration on a log scale to determine an […] from the resultant sigmoid curve.

TRKB [4] = biological target: T2, TRKB; assay: biochemical
[5] = isolated TRKB enzyme, read-out: TrkB enzyme potency

| Compound | IC50 (TRKA [1]) [nM] | Papp A→B (MDR1) [×10⁻⁶ cm/s] | Papp B→A (MDR1; MDCK-MDR1, B to A) [×10⁻⁶ cm/s] | IC50 (TRKB [2]) [nM] | IC50 (TRKA [3]) [nM] | IC50 (TRKC) [nM] | IC50 (TRKB [4]; TrkB enzyme potency) [nM] | Papp B→A (MDR1; MDCK-MDR1, MDCK-MDR1, B to A) [×10⁻⁶ cm/s] | IC50 (TRKB [4]; [5]) [nM] | MDCK MDR1 Papp AB (MDR1) [×10⁻⁶ cm/s] | MDCK MDR1 Papp BA (MDR1; MDCK-MDR1, B to A) [×10⁻⁶ cm/s] |
| --- | --- | --- | --- | --- | --- | --- | --- | --- | --- | --- | --- |
| CC(C)(C)n1cc(C(=O)c2cncc(NC(=O)Cn3cc(C(F)(F)F)nn3)c2)c2cncnc21 [Example 2, N-{5-[(7-tert-butyl-7H-pyrrolo[2,3-d]pyrimidin-5-yl)carbonyl]pyridin-3-yl}-2-[4-(trifluoromethyl)-1H-1,2,3-triazol-1-yl]acetamide] | 5.3 | < 1 | 15 | 3.9 | 8.4 | 1.1 | 113 |  |  |  |  |
| C[C@@H](CO)n1cc(C(=O)c2cncc(NC(=O)Cc3ccc(Cl)cn3)c2)c2cncnc21 [Example 14, 2-(5-chloropyridin-2-yl)-N-[5-({7-[(1S)-2-hydroxy-1-methylethyl]-7H-pyrrolo[2,3-d]pyrimidin-5-yl}carbonyl)pyridin-3-yl]acetamide] | 41 | < 1 |  | 15 | 13 | 4.8 |  | 21 | 773 |  |  |
| CC(C)(C)n1cc(C(=O)c2cncc(NC(=O)Cn3cc(C(F)(F)F)cn3)c2)c2cncnc21 [Example 8, N-{5-[(7-tert-butyl-7H-pyrrolo[2,3-d]pyrimidin-5-yl)carbonyl]pyridin-3-yl}-2-[4-(trifluoromethyl)-1H-pyrazol-1-yl]acetamide] | 1.9 | 1.8 | 15 | 2 | 2.4 | 2.3 | 15 |  |  |  |  |
| C[C@H](CO)n1cc(C(=O)c2cncc(NC(=O)Cc3ccc(Cl)cc3)c2)c2cncnc21 [Example 24, 2-(4-chlorophenyl)-N-[5-({7-[(1R)-2-hydroxy-1-methylethyl]-7H-pyrrolo[2,3-d]pyrimidin-5-yl}carbonyl)pyridin-3-yl]acetamide] | 37 | < 1 | 10 | 27 | 125 | 8.9 | 427 |  |  |  |  |
| Cc1cc(C(F)(F)F)nn1CC(=O)Nc1cncc(C(=O)c2cn([C@@H](C)CO)c3ncncc23)c1 [Example 10, N-[5-({7-[(1S)-2-Hydroxy-1-methylethyl]-7H-pyrrolo[2,3-d]pyrimidin-5-yl}carbonyl)pyridin-3-yl]-2-[5-methyl-3-(trifluoromethyl)-1H-pyrazol-1-yl]acetamide] | 30 | < 1 |  | 18 | 5.7 | 18 |  | 14 | 78 |  |  |
| C[C@@H](CO)n1cc(C(=O)c2cncc(NC(=O)Cc3ccc(Cl)cc3)c2)c2cncnc21 [Example 11, 2-(4-chlorophenyl)-N-[5-({7-[(1S)-2-hydroxy-1-methylethyl]-7H-pyrrolo[2,3-d]pyrimidin-5-yl}carbonyl)pyridin-3-yl]acetamide] | 17 | < 1 | 23 | 11 | 3.3 | 6.6 | 197 |  |  |  |  |
| C[C@@H](CO)n1cc(C(=O)c2cncc(NC(=O)Cn3cc(C(F)(F)F)nn3)c2)c2cncnc21 [Example 13, N-[5-({7-[(1S)-2-hydroxy-1-methylethyl]-7H-pyrrolo[2,3-d]pyrimidin-5-yl}carbonyl)pyridin-3-yl]-2-[4-(trifluoromethyl)-1H-1,2,3-triazol-1-yl]acetamide] | 1130 | < 1 |  | 184 | 20 |  |  | 1 | 449 |  |  |

Further lines, results first:

| IC50 (TRKA [1]) [nM] | Papp A→B (MDR1) [×10⁻⁶ cm/s] | Papp B→A (MDR1; MDCK-MDR1, B to A) [×10⁻⁶ cm/s] | IC50 (TRKB [2]) [nM] | IC50 (TRKA [3]) [nM] | IC50 (TRKC) [nM] | IC50 (TRKB [4]; TrkB enzyme potency) [nM] | Papp B→A (MDR1; MDCK-MDR1, MDCK-MDR1, B to A) [×10⁻⁶ cm/s] | IC50 (TRKB [4]; [5]) [nM] | MDCK MDR1 Papp AB (MDR1) [×10⁻⁶ cm/s] | MDCK MDR1 Papp BA (MDR1; MDCK-MDR1, B to A) [×10⁻⁶ cm/s] | Compound |
| --- | --- | --- | --- | --- | --- | --- | --- | --- | --- | --- | --- |
| 22 | < 1 | 9.1 | 16 | 3.1 | 8.1 | 103 |  |  |  |  | CC(C)(CO)n1cc(C(=O)c2cncc(NC(=O)Cn3ccc(C(F)(F)F)n3)c2)c2cnc(N)nc21 [Example 52, N-(5-{[2-amino-7-(2-hydroxy-1,1-dimethylethyl)-7H-pyrrolo[2,3-d]pyrimidin-5-yl]carbonyl}pyridin-3-yl)-2-[3-(trifluoromethyl)-1H-pyrazol-1-yl]acetamide] |
| 16 | < 1 | 13 | 5 | 4 | 8.6 | 163 |  |  |  |  | CC(C)(CO)n1cc(C(=O)c2cncc(NC(=O)Cn3ccc(C4CC4)n3)c2)c2cnc(N)nc21 [Example 53, N-(5-{[2-amino-7-(2-hydroxy-1,1-dimethylethyl)-7H-pyrrolo[2,3-d]pyrimidin-5-yl]carbonyl}pyridin-3-yl)-2-(3-cyclopropyl-1H-pyrazol-1-yl)acetamide] |
| 3.9 | < 1 |  | 5.4 | 2.8 | 3.2 |  | 17 | 55 |  |  | CC(C)(CO)n1cc(C(=O)c2cncc(NC(=O)Cc3ccc(C(F)(F)F)cc3)c2)c2cncnc21 [Example 27, N-(5-{[7-(2-hydroxy-1,1-dimethylethyl)-7H-pyrrolo[2,3-d]pyrimidin-5-yl]carbonyl}pyridin-3-yl)-2-[4-(trifluoromethyl)phenyl]acetamide] |
| 17 |  |  | 19 | 5.1 | 11 |  |  | 136 | <1 | 13 | CC(CO)n1cc(C(=O)c2cncc(NC(=O)Cc3ccc(C(F)(F)F)cc3)c2)c2cnc(N)nc21 (single isomer, unassigned) [Example 43, N-(5-{[2-amino-7-(2-hydroxy-1-methylethyl)-7H-pyrrolo[2,3-d]pyrimidin-5-yl]carbonyl}pyridin-3-yl)-2-[4-(trifluoromethyl)phenyl]acetamide] |
| 11 | < 1 |  | 13 | 4.5 | 13 |  | 12 | 303 |  |  | CC(CO)n1cc(C(=O)c2cncc(NC(=O)Cc3ccc(C(F)(F)F)cc3)c2)c2cnc(N)nc21 (single isomer, unassigned) [Example 36, N-(5-{[2-amino-7-(2-hydroxy-1-methylethyl)-7H-pyrrolo[2,3-d]pyrimidin-5-yl]carbonyl}pyridin-3-yl)-2-[4-(trifluoromethyl)phenyl]acetamide] |
| 87 | < 1 |  | 59 | 9 | 18 |  | 3.4 | 423 |  |  | CC(C)(CO)n1cc(C(=O)c2cncc(NC(=O)Cn3cc(C(F)(F)F)nn3)c2)c2cncnc21 [Example 32, N-(5-{[7-(2-hydroxy-1,1-dimethylethyl)-7H-pyrrolo[2,3-d]pyrimidin-5-yl]carbonyl}pyridin-3-yl)-2-[4-(trifluoromethyl)-1H-1,2,3-triazol-1-yl]acetamide] |
| 23 | < 1 |  | 25 | 3.6 | 13 |  | 11 | 200 |  |  | CC(CO)n1cc(C(=O)c2cncc(NC(=O)Cc3ccc(Cl)cc3)c2)c2cnc(N)nc21 (single isomer, unassigned) [Example 34, N-(5-{[2-Amino-7-(2-hydroxy-1-methylethyl)-7H-pyrrolo[2,3-d]pyrimidin-5-yl]carbonyl}pyridin-3-yl)-2-(4-chlorophenyl)acetamide] |
| 44 |  |  | 27 | 3.8 | 13 |  |  | 191 | <1 | 9.5 | CC(CO)n1cc(C(=O)c2cncc(NC(=O)Cc3ccc(Cl)cc3)c2)c2cnc(N)nc21 (single isomer, unassigned) [Example 42, N-(5-{[2-amino-7-(2-hydroxy-1-methylethyl)-7H-pyrrolo[2,3-d]pyrimidin-5-yl]carbonyl}pyridin-3-yl)-2-(4-chlorophenyl)acetamide] |
